Where no end group is shown, it is not given here.
Tested on: Gram-positive and Gram-negative bacteria
Assay: In vitro disc diffusion of identified amino acid sequences
Assay type: cell-based
Experimental: Each amino acid sequence identified in each of samples 1, sample 2 and sample 3, were checked for antibacterial activity using the invitro disc diffusion method of Murray P R et al; 1995 (Murray P R, Baron E J, Pfaller M A, Tenover F C, Yolke R H. (1995). Manual of Clinical Microbiology, ASM, Washington, D.C. 6th edition.)
The amino acid sequences were also compared to an Ampicillin standard of 10 μg/mL

Row | Sequence | Antibacterial activity of amino acid sequences | Antibacterial activity compared with the standard drug ampicillin
1 | KRGRLIWRVWRGIW [SEQ ID NO: 4, antibacterial peptide from the <10 kDa fraction of date pits degraded by solid state degradation] | maximum anti-bacterial activity | comparable to the standard drug ampicillin
2 | RQWISRWTWQR [SEQ ID NO:6, antibacterial peptide from the <10 kDa fraction of date pits degraded by solid state degradation] | maximum anti-bacterial activity | comparable to the standard drug ampicillin

— US10517920B2, “Antibacterial peptide and method of treatment using the antibacterial peptide” (United Arab Emirates University, priority 2011, dated 2019)
